Experimental data taken from US9474702B2, “Cosmetic use of salicylic acid derivatives” (Avon Products, Inc., priority 2013, dated 2016).

Target: T1, recombinant human (rh) KLK5 protease (Homo sapiens, UniProt Q9Y337)
T1 construct: purchased R&D Systems 1108-SE
T1 sequence (Q9Y337 23-293): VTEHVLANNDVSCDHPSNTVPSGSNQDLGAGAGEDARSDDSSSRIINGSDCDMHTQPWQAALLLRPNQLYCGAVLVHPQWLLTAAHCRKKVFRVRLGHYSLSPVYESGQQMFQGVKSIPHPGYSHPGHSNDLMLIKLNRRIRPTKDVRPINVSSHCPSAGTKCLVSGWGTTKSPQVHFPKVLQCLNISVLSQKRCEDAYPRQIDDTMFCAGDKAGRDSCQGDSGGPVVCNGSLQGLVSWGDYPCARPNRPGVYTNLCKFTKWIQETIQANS
Assay: Enzymatic activity of Kallikrein 5 (KLK5), fluorogenic peptide substrate Boc-V-P-R-AMC
Assay type: biochemical
Description: The compound of Formula 1a was assayed for enzymatic activity of Kallikrein 5 (KLK5) as follows, and its activity compared to that of salicylic acid. The KLK5 activity of the compound of Formula 1a was calculated as a percentage of KLK5 activity relative to salicylic acid.
In the stratum corneum, skin's outermost layer, cell-to-cell cohesion depends primarily on proteins known as the corneodesmosomes. During skin remodeling and renewal dead cells are shed from the skin surface by the action of native proteases that break down the corneodesmosomes. […] To this end, the enzymatic activity of a member of the KLK family, recombinant human (rh) KLK5, was monitored following pre-incubation with actives and measuring the rate of peptide bond cleavage of a synthetic substrate.
Enzymatic activity of KLK5 was measured by incubating recombinant human (rh) KLK5 protease (R&D Systems, Cat No. 1108-SE) with a specific fluorogenic peptide substrate Boc-V-P-R-AMC (R&D Systems, Cat No. ES011). […] Increase in fluorescence reading indicates an increase in rhKLK5 activity. […] After 60 seconds of incubation, fluorescence was measured at 340 nm (Excitation wavelength) and 485 nm (Emission wavelength) every 1 minute for 7 minutes. Rate (kinetics) of enzyme activity was calculated as follows: Rate of enzyme activity=Change of fluorescent reading (after background correction)/Change of reaction time (min). […]

SMILES: O=C(Oc1ccccc1C(=O)O)c1ccccc1O [compound of Formula 1a]
- KLK5 activity as a percentage relative to salicylic acid (stimulator effect) (relative to salicylic acid, dimer tested at a concentration approximately half of that of salicylic acid, difference not significant): about 90%
- KLK5 stimulation (in words) (rhKLK5 enzymatic activity): potent stimulator of KLK5
